Results from ChEMBL document CHEMBL2429788, “Chiral linkers to improve selectivity of double-headed neuronal nitric oxide synthase inhibitors” (Bioorg Med Chem Lett, 2013).

Tests used:
Nitric oxide synthase 3 = target: T1, Nitric oxide synthase 3 (Bos taurus, UniProt P29473)
T1 sequence (P29473 whole entry): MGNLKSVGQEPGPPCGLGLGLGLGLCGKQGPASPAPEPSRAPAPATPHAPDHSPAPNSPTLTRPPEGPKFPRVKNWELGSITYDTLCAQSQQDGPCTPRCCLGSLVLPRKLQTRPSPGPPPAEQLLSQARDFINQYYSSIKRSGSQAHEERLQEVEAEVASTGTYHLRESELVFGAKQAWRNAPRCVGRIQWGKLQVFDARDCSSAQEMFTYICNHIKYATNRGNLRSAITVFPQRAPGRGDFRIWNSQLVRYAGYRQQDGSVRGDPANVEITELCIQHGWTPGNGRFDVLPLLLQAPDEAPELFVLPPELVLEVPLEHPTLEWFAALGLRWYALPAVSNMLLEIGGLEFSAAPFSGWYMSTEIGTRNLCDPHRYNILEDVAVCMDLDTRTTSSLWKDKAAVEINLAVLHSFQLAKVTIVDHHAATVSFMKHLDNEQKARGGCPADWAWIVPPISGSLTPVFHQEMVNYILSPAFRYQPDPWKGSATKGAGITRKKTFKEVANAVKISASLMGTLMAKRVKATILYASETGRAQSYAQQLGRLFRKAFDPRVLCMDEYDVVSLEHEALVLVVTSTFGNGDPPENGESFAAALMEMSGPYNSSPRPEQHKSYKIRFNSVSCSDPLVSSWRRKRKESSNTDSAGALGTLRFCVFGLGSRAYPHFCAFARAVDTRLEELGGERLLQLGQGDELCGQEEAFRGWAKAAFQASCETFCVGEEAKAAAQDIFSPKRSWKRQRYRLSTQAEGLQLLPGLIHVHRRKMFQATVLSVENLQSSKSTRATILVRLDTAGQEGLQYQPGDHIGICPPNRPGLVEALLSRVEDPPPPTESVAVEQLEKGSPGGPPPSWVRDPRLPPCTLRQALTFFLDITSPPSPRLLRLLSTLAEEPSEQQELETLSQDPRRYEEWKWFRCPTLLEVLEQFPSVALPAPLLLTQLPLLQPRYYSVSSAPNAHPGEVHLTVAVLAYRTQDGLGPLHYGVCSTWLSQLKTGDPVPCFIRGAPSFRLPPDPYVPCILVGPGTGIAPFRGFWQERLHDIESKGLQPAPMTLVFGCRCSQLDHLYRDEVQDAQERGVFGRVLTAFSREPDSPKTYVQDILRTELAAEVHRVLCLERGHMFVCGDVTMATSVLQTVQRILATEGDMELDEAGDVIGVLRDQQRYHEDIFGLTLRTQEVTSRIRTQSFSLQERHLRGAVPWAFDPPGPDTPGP
Description: Inhibition of bovine recombinant eNOS expressed in Escherichia coli using L-arginine as substrate up to 180 seconds by hemoglobin capture assay

[1] = target: T2, Nitric oxide synthase, inducible (Mus musculus, UniProt P29477)
T2 sequence (P29477 whole entry): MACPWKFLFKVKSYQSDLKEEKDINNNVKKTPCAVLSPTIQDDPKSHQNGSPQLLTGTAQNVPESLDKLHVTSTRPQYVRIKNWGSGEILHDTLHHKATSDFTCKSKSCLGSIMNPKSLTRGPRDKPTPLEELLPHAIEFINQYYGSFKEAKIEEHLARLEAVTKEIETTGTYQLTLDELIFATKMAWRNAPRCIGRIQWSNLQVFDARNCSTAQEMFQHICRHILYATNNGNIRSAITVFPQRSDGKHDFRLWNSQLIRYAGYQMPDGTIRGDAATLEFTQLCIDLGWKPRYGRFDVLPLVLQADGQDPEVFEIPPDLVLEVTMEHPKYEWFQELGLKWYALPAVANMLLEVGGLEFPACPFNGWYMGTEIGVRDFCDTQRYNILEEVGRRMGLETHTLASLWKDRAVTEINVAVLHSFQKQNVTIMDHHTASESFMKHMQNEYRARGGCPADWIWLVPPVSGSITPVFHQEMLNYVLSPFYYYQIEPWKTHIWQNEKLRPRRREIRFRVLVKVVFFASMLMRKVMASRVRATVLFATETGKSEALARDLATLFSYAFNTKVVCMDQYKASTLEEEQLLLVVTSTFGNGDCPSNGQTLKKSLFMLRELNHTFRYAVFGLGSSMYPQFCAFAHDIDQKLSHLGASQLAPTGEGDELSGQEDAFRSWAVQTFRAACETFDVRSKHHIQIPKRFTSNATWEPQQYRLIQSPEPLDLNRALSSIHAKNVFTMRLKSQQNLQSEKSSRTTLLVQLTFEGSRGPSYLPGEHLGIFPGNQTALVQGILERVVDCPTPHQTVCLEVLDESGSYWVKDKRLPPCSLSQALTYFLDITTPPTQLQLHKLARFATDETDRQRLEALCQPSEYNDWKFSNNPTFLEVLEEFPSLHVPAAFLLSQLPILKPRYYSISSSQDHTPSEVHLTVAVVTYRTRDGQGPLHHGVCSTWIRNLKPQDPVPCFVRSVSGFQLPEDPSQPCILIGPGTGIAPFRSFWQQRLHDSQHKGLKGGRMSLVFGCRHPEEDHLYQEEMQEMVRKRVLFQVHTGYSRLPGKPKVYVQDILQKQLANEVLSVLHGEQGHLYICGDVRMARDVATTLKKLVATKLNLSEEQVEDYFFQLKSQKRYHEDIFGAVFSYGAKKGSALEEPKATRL
Description: Inhibition of mouse recombinant iNOS expressed in Escherichia coli using L-arginine as substrate up to 180 seconds by hemoglobin capture assay

SMILES: Cc1cc(N)nc(COCCOCc2cc(C)cc(N)n2)c1
- Ki (Nitric oxide synthase 3): 5.26 µM
- Ki [1]: 2.93 µM
